Patent US8653076B2, “Oxo-substituted imidazo[1,2B]pyridazines, their preparation and use as pharmaceuticals” (Bayer Intellectual Property GmbH, priority 2006, dated 2014)

How the values were obtained:
[1] = molecular target: T1, protein kinase C theta (Homo sapiens, UniProt Q04759); test: PKC-theta HTRF kinase assay; assay type: biochemical; settings: recombinant PKC-theta, 10 μM ATP, read-out: Inhibition of PKC theta IC50
T1 construct: purchased ProQinase (Freiburg)
Experimental: Inhibition of the enzymic activity of the protein kinase C theta was determined with the aid of the PKC-theta HTRF assay.
Recombinant PKC-theta protein was purchased from ProQinase (Freiburg). The kinase substrate used was the biotinylated peptide having the amino acid sequence biotin-RFARKGSLRQKNVHEVK, which was purchased from Biosynthan (Berlin).
PKC-theta [0.7 nM in the assay mixture, assay volume 5 μl] was incubated at 22° C. for 15 min in the presence of various concentrations of test substances (0 μM, and 10 measurement points within the range 0.001-20 μM in duplicates) in assay buffer [50 mM Hepes/NaOH pH 7.4, 1.0 mM MnCl2, 10.0 mM MgCl2, 1.0 mM dithiothreitol, 0.1 mM sodium orthovanadate, 10 μM adenosine triphosphate (ATP), 0.5 μM substrate peptide, 0.1 mg/ml phosphatidyl serine, 0.01 mg/ml diacylglycerol, 1% (v/v) dimethyl sulfoxide]. The reaction was stopped by adding 5 μl of an EDTA/detection solution [50 mM Hepes/NaOH pH 7.4, 400 mM KF, 40 mM EDTA, 0.1% bovine serum albumin, 100 nM streptavidin-XLlent (from Cisbio, #611SAXLB), 1.8 nM anti-phospho PKC substrate crypate conjugate antibody (CisBio: #61P03KAZ)]. […]

[2] = tested on: interleukin 2 (IL-2) secretion; test: anti-CD3/anti-CD28 antibody-induced IL-2 secretion in human PBMC (ELISA); assay type: cell-based; settings: human PBMC stimulated with anti-CD3 and anti-CD28, 20 hours
Experimental: The extent to which test substance influence antibody-induced interleukin 2 (IL-2) secretion was investigated in the following test system. IL-2 represents a central cytokine which is produced and released by activated T cells. IL-2 synthesis in the T cells is regulated by a plurality of kinases. An inhibitory effect of substances on kinases leads inter alia to inhibition of IL-2 synthesis and inhibition of the T cell immune response. The cytokine determinations were carried out using an ELISA kit.
Peripheral blood mononuclear cells (PBMC) were isolated from heparinized human whole blood by gradient centrifugation using Histopaque 1077 (Sigma) at room temperature, and the erythrocytes were lyzed hypotonically and, after washing twice in PBS, taken up in cell culture medium (10% fetal inactivated calf serum in RPMI-1640+Glutamax-I [Gibco]).
The 96 well culture plates (Costar) were previously incubated with 100 μl of antibody solution in PBS 0.1 μg/ml in PBS [Gibco]) per well at 4° C. for 18 hours. The antibodies used were anti-CD3 and anti-CD28 monoclonal antibodies (PharMingen). After washing with PBS three times, the plates were charged with 200 μl of the cell suspension (40 000 cells/well). […]
Interleukin-2 was determined using an ELISA kit (Bioscience), and the absorption of the color change was analyzed in a SpectraMax 340 PC (wavelength 450 nm). […]

T1 sequence (Q04759 whole entry): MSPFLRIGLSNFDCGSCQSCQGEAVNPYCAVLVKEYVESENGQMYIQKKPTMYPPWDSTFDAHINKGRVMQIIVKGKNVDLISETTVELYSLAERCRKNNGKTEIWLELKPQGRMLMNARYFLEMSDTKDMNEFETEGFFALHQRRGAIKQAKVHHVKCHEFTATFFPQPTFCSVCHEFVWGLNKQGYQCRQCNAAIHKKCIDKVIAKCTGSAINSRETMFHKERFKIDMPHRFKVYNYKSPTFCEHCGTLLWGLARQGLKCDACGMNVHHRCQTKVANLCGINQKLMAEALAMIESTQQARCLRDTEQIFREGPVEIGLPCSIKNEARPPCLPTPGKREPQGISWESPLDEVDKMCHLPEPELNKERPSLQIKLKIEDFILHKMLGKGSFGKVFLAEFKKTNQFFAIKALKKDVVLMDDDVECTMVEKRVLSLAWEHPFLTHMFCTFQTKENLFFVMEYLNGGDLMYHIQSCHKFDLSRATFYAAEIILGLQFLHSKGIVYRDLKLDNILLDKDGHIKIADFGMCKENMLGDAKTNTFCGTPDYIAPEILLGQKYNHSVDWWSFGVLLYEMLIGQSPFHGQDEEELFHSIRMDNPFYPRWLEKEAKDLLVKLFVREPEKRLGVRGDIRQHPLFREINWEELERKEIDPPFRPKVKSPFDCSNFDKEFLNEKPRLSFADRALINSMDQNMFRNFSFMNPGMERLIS

IC50 [1]: 4.1 µM
IC50 ([2]; IL-2 ELISA, read-out: IC50 (concentration for 50% inhibition of IL-2)): 1300 nM
SMILES: Clc1cccc(-c2cnc3ccc(OCCCN4CCOCC4)nn23)c1 [Example 1, 3-(3-Chlorophenyl)-6-(3-morpholin-4-ylpropoxy)imidazo[1,2-b]pyridazine]
inhibition at 10 µM ([2]; 10 μM): > 95%
